In patent US8759363B2, “Quinazoline-based T cell proliferation inhibitors” (Yissum Research Development Company of the Hebrew …, priority 2010, dated 2014):
Several values for one entry are separate records, joined by “and”; a condition that tells them apart may be missing. Equal values may be shown once. Read-outs that look alike come from different tables or passages of the source.

How the values were obtained:
Keratinocytes = assay: Keratinocyte proliferation, BrdU uptake; assay type: cell-based; conditions: Homo sapiens, serum activated, read-out: IC50 of stimulated cells
Experimental: Primary human keratinocytes were maintained in keratinocyte growth medium (KGM): DMEM, 25% Nutrient mixture F-12 (HAM), 10% fetal bovine serum, 5 μg/ml insulin, 0.4 μg/ml hydrocortisone, 0.1 nM cholera toxin, 10 ng/ml epidermal growth factor, 1.8×10^−4 M adenine, 5 μg/ml transferrin, 2 nM T3, 100,000 U/l penicillin, […] streptomycin, 0.1 mg/ml amphotericin. The primary keratinocytes were cultured from small biopsy specimens.
(§1) Cells were depleted of fetal calf serum (FCS) for 12 hours. They were then stimulated to proliferate by addition of ConA (10 μg/ml) for PBMC from healthy individuals and for Jurkat cells, FCS (10%) for HEK293 and A375 cells, PDGF (30 ng/ml) for NIH 3T3 cells, and EGF (30 ng/ml) for MDA-MB-231, Cells (1×10^5) were cultured in 96-well plates for 3 days in the presence or absence of inhibitors at the concentrations specified in the text. Each condition was tested in duplicate wells.
Proliferation was assessed by BrdU incorporation using a colorimetric ELISA kit (Roche, Germany). Subsequent to labeling with 10 μM BrdU, DNA was denatured and the cells were incubated with anti-BrdU-POD, prior to the addition of colorimetric substrate (TMB). The reaction product was quantified by measuring absorbance at 450 nm in an ELISA plate reader (ELx800 BIO-TEK Instruments Inc.). […]

A375 = A375 proliferation, BrdU uptake; assay type: cell-based; conditions: Homo sapiens, A-375
Experimental: as §1
(§2) Proliferation was assessed by BrdU incorporation using a colorimetric ELISA kit (Roche, Germany). Subsequent to labeling with 10 μM BrdU, DNA was denatured and the cells were incubated with anti-BrdU-POD, prior to the addition of colorimetric substrate (TMB). The reaction product was quantified by measuring absorbance at 450 nm in an ELISA plate reader (ELx800 BIO-TEK Instruments Inc.).
(§3) To characterize the mode of action of 2 (S101) in more detail, we first examined whether 2 inhibits non-hematopoietic cell lines. We studied the effect of 2 on the growth of four cell lines: NIH 3T3 (mouse embryonic fibroblasts), A-431 (human vulval carcinoma cells), MDA-MB-468 (human breast carcinoma cells), and PANC-1 (human pancreatic carcinoma cells) (FIGS. 1A-B). We also tested the inhibitors on human keratinocytes. […]

MDA-MB-231 = MDA-MB-231 proliferation, BrdU uptake; assay type: cell-based; conditions: Homo sapiens
Experimental: as §1, §2, §3

TEA (stimulated) cells = assay: MLR with resting control cells, stimulated TEA cells; assay type: cell-based, mouse; conditions: 0.5 μM, 72 h MLR with IL-7; no inhibitor 3850
Text: The aim of this test was to determine whether 2 affects only the proliferating cells or there is a general mechanism affecting all cell numbers. For this purpose we mixed 3 cell types: […]: BALB/c, 2C and OT1; […]: CB6F1, TEA and OT2. The OT1 and OT2 are splenocytes that were isolated from OT1 and OT2 mice (Jackson Laboratories, Bar Harbor, Me.),
Thus, the ability to monitor the fate of proliferation and resting cells by FACS was enabled due to the use of the MLR described above for CD4+ and CD8+ and the addition of OT2 and OT1 splenocytes, respectively.
Proliferating cells often secrete cytokines that induce survival of neighbouring cells; since the proliferation was expected to be inhibited we added 50 ng/ml of IL-7. This concentration is sufficient to keep the cells alive, but not to induce proliferation.
The number of TEA and OT2 cells that were treated with 0.5 μM 2 was 1452 and 826, respectively, while the number of 2C and OT1 cells that were treated with 0.5 μM 21 was 3003 and 903, respectively. This is depicted as a bar-graph in FIG. 9C.

[1] = In vitro percutaneous absorption and penetration, porcine ear skin; assay type: in vitro ADME
Experimental: Fresh porcine ears were obtained from local slaughterhouse. Dorsal side skin was surgically removed from the ears. Hairs were trimmed off with an electric trimmer. Subcutaneous fat was carefully cleaned. […] They were stored at −20° C. until use.
Compound 2 was dispersed into Labrasol® (Gattefosse, France) The mixture was heated to 35° C. and stirred until solubilized. Final concentrations: 0.108% and 0.316%. The final products are clear and somewhat viscous solutions.
The skin samples were mounted on Zyleris' High-Throughput Screening (HTS) station. Each individual cell has a diffusion area of 0.503 cm^2 (8 mm in diameter). The receptor chamber was filled with 2.0 ml of 5% Oleth-20 in 1×PBS buffer, pH 7.4 (10 mM Phosphate, 138 mM NaCl and 2 mM KCl), which was continuously mixed at 200 r.p.m. The screening experiments were carried out at 32±0.1° C. Oleth-20 is a polyethylene glycol ether of Oleyl Alcohol [Poly(oxy-1,2-ethanediyl) 20 mol Ethylene Oxide average molar ratio] (Spectrum Chemical, California).
The samples were dosed at 5 mg for both formulations. Each formulation was run in three replicates. At the end of each time interval (2, 12, and 24 h), the skin surface was wiped with cotton ball. The standard tape-stripping method was used to remove the stratum corneum (SC) layer. Repeated tape-stripping was continued until SC layer was disappeared (15 strips). Compound 2 absorbed in epidermis/dermis layer was collected by solvent extraction with DMSO. After tape-stripping, the remaining skin samples were minced and vortexed with 1.5 ml DMSO. The supernatant was separated. The extraction step was repeated three times. The supernatants were combined and ready for analysis.
The analysis was carried out with a Shimadzu LC-10ADVP instrument with Varian Polaris 3 C18-A, 50×3.0 mm, column. Mobile Phase A: 0.1% formic acid in water. Mobile Phase B: 0.1% formic acid in methanol. Flow rate: 0.4 ml/min.
MS system is an AB Scienx API4000 operated at positive ionization mode. The calibration range is 2.50-25,000 ng/ml.
Quality control of the screening experiments was established by measuring mass balances of a couple of selected runs (spot-check). Measurement of mass balance is to determine total amount of 2 recovered after each experiment. After the selected experiments, total amount of 2 left on the skin surface, absorbed in stratum corneum, in epidermis/dermis layer, and collected in the receptor medium was extracted and determined by LC-MS/MS analysis. The total amount was then compared to the initial dosing amount to determine recovery percentage. Two of the 12 hr runs for the 0.316% formulation was selected for the spot-check. […] They are within acceptable range of 80-120%.

## COc1cc(-c2nc(Nc3ccc(C)cc3)c3ccccc3n2)cc(OC)c1OC [Compound 2, N-p-tolyl-2-(3,4,5-trimethoxyphenyl)quinazolin-4-amine]
Keratinocytes
  IC50: > 10 µM
A375; A375, non-stimulated, read-out: IC50 of non-stimulated cells
  IC50: ~0.8 µM
A375; A375, serum (FCS 10%) activated, read-out: IC50 of stimulated cells
  IC50: > 10 µM
MDA-MB-231; MDA-MB-231, EGF (30 ng/ml) activated, read-out: IC50 of stimulated cells
  IC50: > 10 µM
MDA-MB-231; MDA-MB-231, non-stimulated, read-out: IC50 of non-stimulated cells
  IC50: > 10 µM
TEA (stimulated) cells
  number of TEA (stimulated) cells: 1452
[1]; after 24 h, 0.3% 2 in Labrasol
  skin concentration relative to the IC50: 1000 folds
[1]; after 24 h, initial concentration 0.3% 2 in Labrasol, estimated
  final concentration in the skin (epidermis/dermis): higher than 114 μM
[1]; porcine ears skin, Labrasol formulation
  penetration of the epidermis/dermis layer: able to penetrate
[1]; two 12 hr runs, 0.316% formulation
  recovery percentage (mass balance): 89% and 114%
